Consider three compounds from patent publication US12043612B2, “Methods of manufacturing a bifunctional compound, ultrapure forms of the bifunctional compound, and dosage forms comprising the same” (Arvinas Operations, Inc., priority 2020, dated 2024).

The nature of data set [1]: 90-minute non-sink dissolution, pH 2 HCl shifted to pH 6.5 SIF. The data set is classed as physicochemical. Conditions: 1 mg/mL in pH 2 HCl, shift to pH 6.5 SIF at 30 minutes. The method, then: FIG. 11 is a series of line graphs showing the dissolution of crystalline vs. amorphous Compound A API. API (1 mg/mL) is present in gastric conditions (pH=2), which is 2× diluted with FaSSIF at 30 minutes to increase the pH to 6.5. (API=active pharmaceutical ingredient; FaSSIF=fasted state simulated intestinal fluid.)
FIG. 12 is a series of line graphs showing the non-sink dissolution of spray-dried amorphous Compound A produced at multiple scales. API (500 μg/mL) is present in gastric conditions (pH=2), which is 2× Diluted with FaSSIF at 30 minutes to increase the pH to 6.5.
A 90-minute non-sink dissolution experiment was conducted in which a Compound A suspension was introduced into pH 2 HCl at a final concentration of 1 mg/mL, which was then periodically sampled and prepared for analysis via centrifugation. A shift to pH 6.5 SIF was carried out 30 minutes into the experiment.

Data set [2] can be described thus: Glass transition and recrystallization temperature of amorphous solids. Type of data set: physicochemical. As for the experimental part: Thus, while crystals of Compound A are quite stable, there is a significant barrier to transforming to a crystalline state from an amorphous form. Indeed, a ramped temperature increase of a partially-crystalline sample does eventually lead to a recrystallization event, but not until a temperature of 200-220° C. is achieved. […] As discussed below, this robust resistance to crystallization is preserved even in the presence of water.
The amorphous form of pure Compound A is robust with a high Tg and even higher recrystallization temperature. The glass transition temperature does decrease under the plasticizing conditions of high humidity. However, the value is still well above the commonly applied 40-50° C. difference between Tg and any temperature the clinical presentation will encounter.

The nature of data set [3]: Stability of amorphous Compound A (spray-dried intermediate). The data set is classed as physicochemical. The method, then:
The stability of amorphous Compound A was assessed at three stability conditions: 2-8° C.; 25° C./60% RH; and 40° C./75% RH for a period of 12 months.
During stability testing, amorphous Compound A was stored in wire-tied low-density polyethylene bags placed in heat-induction sealed, high-density polyethylene (HDPE) bottles containing a desiccant canister, and capped with polypropylene-lined closures.

A short description of data set [4]: Membrane flux experiment (donor/receiver compartments, SIF bile salts). As to conditions: amorphous suspension as donor compartment contents.
Description: A membrane flux experiment was conducted in which a fixed amount of compound was introduced into the donor compartment at various concentrations of the SIF bile salts, and appearance of drug was monitored on the receiver side.
The nature of data set [5]: Rat pharmacokinetic studies with solutions and spray-dried dispersions. As to conditions: male, rat, in vivo, po, 150 mg/kg.
The nature of data set [6]: Metabolite in female mouse liver microsomes. Type of data set: in vitro ADME. In general terms: Liver microsomes are a subcellular fraction often used to study metabolism.
Data set [7] in a line: Metabolite in liver microsomes and hepatocytes. Type of data set: in vitro ADME. Conditions: male human, monkey, dog, rat, and mouse liver microsomes and hepatocytes.
Where [8] appears, read: after 6 months of storage at 2-8° C.
Setting [9] is: after 12 months at 25° C./60% RH.
[10] abbreviates: after 12 months at 40° C./75% RH.

As usually defined, the AUC is concentration integrated over time. A low value points to low exposure. As to `N#Cc1ccc(O[C@H]2CC[C@H](NC(=O)c3ccc(N4CCC(CN5CCN(c6cc7c(cc6F)C(=O)N(C6CCC(=O)NC6=O)C7=O)CC5)CC4)nn3)CC2)cc1Cl` (some centres unmarked) [Spray-Dried Amorphous Compound A], in data set [1], the “non-sink dissolution, amorphous vs crystalline (FIG. 11)” value is “Higher concentrations are achieved in the gastric phase of the experiment and sustained in the intestinal phase”. In addition, the “Glass Transition Temperature” value in data set [2] (Temperature/RH 25/0 (° C./%)) amounted to 146 °C; in data set [2] (Temperature/RH 40/75 (° C./%)) it was 103 °C. Also, the purity turned out to be 95.7% in data set [3] (setting [8]), 97.7% in data set [3] (setting [9]) and 98% in data set [3] (setting [10]). Besides, the “water (major impurity)” value in data set [3] (setting [8]) turned out to be 0.9%; in data set [3] (setting [9]) it was 1.62%. Besides, the “water (major impurity), Karl Fischer titration” value in data set [3] (setting [10]) worked out at 2.16%. Also, the “recrystallization of the amorphous form” value in data set [3] (all three storage conditions, any time during the studies) is recorded as “no evidence of recrystallization”. In addition, in data set [4], the “Flux (μg-min^−1-cm^−2)” value is 0.15 μg-min^−1-cm^−2. Moreover, the AUC in data set [5] came out at 19400 ng·h/mL.
With `N#Cc1ccc(O[C@H]2CC[C@H](NC(=O)c3ccc(N4CCC(CO)CC4)nn3)CC2)cc1Cl` [Intermediate 2, N-((1r,4r)-4-(3-chloro-4-cyanophenoxy)cyclohexyl)-6-(4-(hydroxymethyl)piperidin-1-yl)pyridazine-3-carboxamide], the occurrence as metabolite entry in data set [6] was “A process impurity in Intermediate 3 and can be formed as a by-product of the reductive amination in Step 3. This impurity is also a metabolite in female mouse liver microsomes”.
On to `N#Cc1ccc(O[C@H]2CC[C@H](NC(=O)c3ccc(N4CCC(C(=O)O)CC4)nn3)CC2)cc1Cl` [Impurity 1], for which, in data set [7], the occurrence as metabolite result is “A process impurity resulting from over oxidation of Intermediate 2 in Step 2. This impurity is also a metabolite in male human, monkey, dog, rat, and mouse liver microsomes and hepatocytes”.
